A word on the AC50: it is the midpoint of the concentration-response curve, whichever way the signal moves.

One assay relates to A. baumannii. Kind of assay: HTS total bacterial growth assay (optical density OD560). The assay is classed as cell-based, Acinetobacter baumannii. The conditions noted are these: Acinetobacter baumannii, 10 point dose-response 0.1-50 μM, NS* = no sigmoid curve observed, read-out: Total Bacteria Growth AC50. From the text:
(§1) Each HTS tier consisted of: (i) primary screening, (ii) confirmation screening and (iii) dose-response curve screening. Each tier of HTS included three distinct biological process assays. The first assay was an optical density measurement of bacteria growth in the presence of each compound reported as a total bacteria growth. In the second assay, resazurin solution was used as an indicator of metabolic activity to measure the live bacteria in the biofilms, reported as live biofilm. The final assay was crystal violet staining, which indicated the amount of biofilm formation and the effect of each compound on this process, reported as total biofilm formation.
(§2) Briefly, stationary phase bacteria grown in L-broth were diluted 1:200 into fresh L-broth and 50 μM of each test compound. After 20-24 hours, the optical density (OD560) of each suspension was measured using Zeiss Plate::Vision with a 560 BP filter (560 nm, 2.5% light intensity, 1 mm focus to bottom of plate, and exposure time of 100 ms). To measure bacterial viability in the biofilm, 50 μl of a 5 mg/ml resazurin solution in L-broth was added to each well after washing 3 times with 50 μl of PBS. The plates were then incubated at 37° C. for 30 or 180 min for A. baumannii and P. aeruginosa biofilms, respectively. Fluorescence was measured using Zeiss Plate::Vision at excitation and emission wavelengths of 535 and 580 nm, 100 ms exposure time, 2.5% intensity and a 2 mm focus to the bottom of the biofilms. To assess biofilm formation, plates were washed 3 times with PBS and then 50 μl of 0.01% of crystal violet was added to each well to assess bacterial biofilm formation as described in a similar borosilicate tube assay by O'Toole and Kolter. After incubation at room temperature for 30 min and removal of the crystal violet solution by washing with PBS, 95% ethanol was added to solubilize the crystal violet followed by incubation for 20 min at room temperature. Finally, the optical density of each plate was determined using measured by Zeiss Plate::Vision using the same settings used to measure total bacterial growth. These 3 steps were used in each of the three tiers for the HTS process: (i) single point primary screening at 10 μM, (ii) triplicate confirmation of hits from (i) at 10 μM and (iii) determination of AC50 values in 10 point dose-response at a concentration range of 0.1-50 μM) in hits from (ii). The AC50 represents the concentration of compound that inhibits 50% of bacterial growth, bacterial viability, or biofilm formation. Genedata Screener® Assay Analyzer Software (Ver. 9.0.0 Standard) was used to analyze data from all assay tiers. Compounds with an AC50 of less than 20 μM in one of the biological assays from the dose response screen were subject to additional investigation.

In assay [1] the test system is A. baumannii biofilm. Kind of assay: HTS total biofilm formation assay (crystal violet staining). The assay is classed as cell-based, Acinetobacter baumannii. The conditions noted are these: Acinetobacter baumannii, 10 point dose-response 0.1-50 μM.
Excerpt: as §1, §2

Assay [2] relates to A. baumannii biofilm. Kind of assay: HTS live biofilm assay (resazurin metabolic activity). The assay is classed as cell-based, Acinetobacter baumannii. The note with it: Acinetobacter baumannii, 10 point dose-response 0.1-50 μM.
Excerpt: as §1, §2
A general note: Alamar Blue is a resazurin reagent that responds to reducing activity.

For assay [3], the system named is P. aeruginosa biofilm. Kind of assay: HTS total biofilm formation assay (crystal violet staining). It is filed as cell-based, Pseudomonas aeruginosa. The note with it: Pseudomonas aeruginosa, 10 point dose-response 0.1-50 μM.
Excerpt: as §1, §2

The subject of assay [4] is P. aeruginosa biofilm. Kind of assay: CLSM, co-culture of bacteria with compound (inhibition of biofilm formation). It is filed as cell-based, Pseudomonas aeruginosa. The note with it: for killing of residential bacteria, co-culture (CLSM, in words): 10 μM; for Co-culture of bacteria with compound: Killing: Y / —. How it is done:
(§3) Broad spectrum agents (effective against all three bacterial species) and single agent compounds identified as HTS hits were investigated with CLSM confirmation of inhibition of biofilm formation (culture of bacteria with compounds) or killing of bacteria residing within an established biofilm (compound addition after culturing biofilm). To evaluate inhibition of P. aeruginosa biofilms, bacteria were sub-cultured into 10% L-broth and grown at 37° C. until the OD600 reached 0.25. The bacteria were further diluted 1:100 into a modified 0.5×M63 minimum media (50 mM KH2PO4, 7.5 mM (NH4)2SO4, 9 μM FeSO4, 0.5% casamino acids, 0.2% glucose, and 1 mM MgSO4). A. baumannii biofilms were also grown in 10% L-broth until the OD600 reached 0.05 but diluted 1:10 into 5% L-broth media. S. epidermidis biofilm cultures were grown. Briefly, the bacteria were grown in TSB until the OD600 reached 0.75, and a 1:100 dilution of the bacteria was sub-cultured into phosphate buffered saline (PBS). All of the biofilm bacterial cultures were grown in 96-well plate chambers (MatTek Corp., Ashland, Mass.) in the presence of 10 μM of each compound or DMSO as a control and incubated for 18 hrs at 37° C. To investigate the ability of compounds to kill bacteria within pre-existing biofilms, biofilms were grown under the same conditions, but without test compound. These biofilms were washed once with PBS and incubated an additional 24 hr at 37° C. in PBS containing 300 μM of each compound. All biofilm cultures were then washed twice with 100 μL of PBS and stained using the LIVE/DEAD® BacLight™ Bacterial Viability Kit (Invitrogen). Finally, biofilm images were obtained using a Zeiss LSM510 META Confocal Microscope (Carl Zeiss, Inc., Germany). A 488 nm laser was used in conjunction with a Plan-Apochromat 100×/1.4 Oil DIC objective. Z-stacks were 8 bit and measured 127.3 μm×127.3 μm×16.0 μm in size. The filters used were 505-530 and 620-680 IR, as the excitation and emission wavelengths for red fluorescence are 490 nm and 635 nm, respectively, and 480 nm and 500 nm for green fluorescence. Three dimensional images were generated using the “Projection” ability on LSM Image Browser software (v.1.4.0.121) or Zeiss LSM image browser software version 3.5 (Carl Zeiss, Inc., Germany), and Live/Dead calculations were conducted based upon these images using MacBiophotonics ImageJ following the guidelines in the cell counting guide by C. Labno {Rasband, 1997-2011 #25; Labno, #2} at the University of Chicago Integrated Light Microscopy Core. The thickness of the biofilm was calculated using Comstat software. A hit was defined as a >50% dead to live ratio.
(§4) The CLSM experiment was performed in one or two or all bacteria used in this study depending on its activity. For the validation of HTS hits, 10 μM of compound was added to each bacterial suspension and the resulting biofilm stained with LIVE/DEAD® BacLight™ Bacterial Viability Kit. The images were analyzed to determine the live and dead ratios of biofilm bacteria, the thickness of biofilms, and structural attributes of biofilms.

The test system of assay [5] is A. baumannii biofilm. The description is as above. It is filed as cell-based, Acinetobacter baumannii. How it is done: as §3, §4
The next assay concerns P. aeruginosa. Kind of assay: HTS total bacterial growth assay (optical density OD560). The assay is classed as cell-based, Pseudomonas aeruginosa. The conditions noted are these: Pseudomonas aeruginosa, 10 point dose-response 0.1-50 μM, read-out: Total Bacteria Growth AC50.
Excerpt: as §1, §2

The subject of assay [6] is P. aeruginosa biofilm. Kind of assay: HTS live biofilm assay (resazurin metabolic activity). It is filed as cell-based. The conditions noted are these: Pseudomonas aeruginosa, 10 point dose-response 0.1-50 μM.
Excerpt: as §1, §2

Assay [7] concerns P. aeruginosa established biofilm. Kind of assay: CLSM, effect of compound on the pre-existing biofilm. The note with it: 300 μM, 24 hr. The assay is classed as cell-based, Pseudomonas aeruginosa. How it is done:
as §3, §4

Assay [8] deals with S. epidermidis established biofilm. Kind of assay: Killing of established Se biofilm by compounds Se-1 through Se-16. It is filed as cell-based, Staphylococcus epidermidis. The conditions noted are these: 300 μM compound, X / O. The source says: This Example illustrates efficacy of compounds Se-1 through Se-16 at inhibiting S. epidermidis biofilm formation and/or killing established S. epidermidis biofilms. Detailed methods, materials and data are set forth in Shea, Chloe, U of Cincinnati Masters Thesis “Effectiveness of Novel Compounds at Inhibiting and Killing P. aeruginosa and S. epidermidis Biofilms” published on Mar. 17, 2013, the entire disclosure of which is incorporated herein by this reference. FIG. 8 illustrates effective inhibition of Se biofilm formation. For these experiments, Se was co-cultured with 10 μM of compounds Se-1 through Se-16 (see Table 5 for compound names and Table 6 for compound structures). A-H represents the top view of the Se biofilm, while the sagittal view is shown in I-P. The control Se biofilm is shown in A/I. Se biofilm formation in the presence of 10 μM of compound Se-3, Se-4, Se-13, Se-14, Se-15 or Se-16 as shown in B/J, C/K, D/L, E/M, F/N, G/O, and H/P, respectively. FIG. 9 illustrates effective killing of established Se biofilm. For this experiment, Se biofilms were treated with 300 μM of compounds Se-1 through Se-16. A-H represents the top view of the Se biofilm, while the sagittal view is shown in I-P. The control Se biofilm is shown in A/I. Effective killing was defined as >50% dead bacteria.

Consider `NC1=CC(=O)c2nonc2C1=O` [Compound 2, 5-amino-2,1,3-Benzoxadiazole-4,7-dione], for which the AC50 in the assay with A. baumannii turned out to be 2.21 µM; in the assay on A. baumannii biofilm [1] it was 3.15 µM; in the assay with A. baumannii biofilm [2] it was 3.21 µM; with P. aeruginosa biofilm [3], 1.43 µM; with P. aeruginosa it was 9.09 µM; in the assay with P. aeruginosa biofilm [6], 15.2 µM. The “killing of residential bacteria, co-culture (CLSM, in words)” value with P. aeruginosa biofilm [4] and in the assay with A. baumannii biofilm [5] (10 μM) was “effectively killed the residential bacteria” each time. Further, the “Co-culture of bacteria with compound: Killing” value with P. aeruginosa biofilm [4] (CLSM, 10 μM compound, 18 hrs) is “Y (A hit was defined as a >50% dead to live ratio)”; with A. baumannii biofilm [5] (CLSM, 10 μM compound, 18 hrs, Y / —), “Y (A hit was defined as a >50% dead to live ratio)”.
Regarding `CC(C)(C)n1cc(C(=O)O)c(=O)c2cc(F)c(N3CCN(C(=S)S)CC3)nc21` [Compound 9, 1-(1,1-dimethylethyl)-1,4-dihydro-6-fluoro-4-oxo-7-(4-dithiocarboxypiperazin-1-yl)-1,8-Naphthyridinyl-3-carboxylic acid], the AC50 came out at 3.6 µM with P. aeruginosa biofilm [3], 27.7 µM in the assay with P. aeruginosa and 8.14 µM with P. aeruginosa biofilm [6]. Also, in the assay on P. aeruginosa biofilm [4] (CLSM, 10 μM compound, 18 hrs), the “Co-culture of bacteria with compound: Inhibit biofilm formation” value is “failed to inhibit biofilm formation”. Moreover, the “killing of established P. aeruginosa biofilm (CLSM, in words)” value in [7] is on record as “failed to kill bacteria within a biofilm”.
In the case of `O=C(O)c1cn(-c2ccc(F)cc2F)c2nc(N3CCC(O)CC3)c(F)cc2c1=O` [Compound 14, 1-(2,4-difluorophenyl)-6-fluoro-1,4-dihydro-4-oxo-7-(4-hydroxy-1-piperidinyl)-1,8-Naphthyridine-3-carboxylic acid], the AC50 with P. aeruginosa biofilm [3] came to 13 µM; with P. aeruginosa, 13.6 µM; in the assay on P. aeruginosa biofilm [6], 80.1 µM. Also, the “killing of residential bacteria, co-culture (CLSM, in words)” value with P. aeruginosa biofilm [4] is on record as “lethal to residential bacteria”. In the assay with P. aeruginosa biofilm [4] (CLSM, 10 μM compound, 18 hrs), the “Co-culture of bacteria with compound: Killing” value is recorded as “Y (A hit was defined as a >50% dead to live ratio)”.
As to `CN(C)c1ccc(CN2CCN(C(=O)Nc3ccc(C(F)(F)F)cc3)CC2)cc1` [Se3, 4-{[4-(dimethylamino]phenyl]methyl}-N-[4-(trifluoromethyl]phenyl]piperazine-1-carboxamide], the Killing entry in assay [8] is reported as “X (Effective killing was defined as >50% dead bacteria)”.
Same read-out and setting: the entry for `CCCCCCCCCCCCOCC[N+](CCO)(CCO)Cc1ccccc1` [Se4, 2-dodecoxyethyl-bis(2-hydroxyethyl)-(phenylmethyl)ammonium] is “X (Effective killing was defined as >50% dead bacteria)”; for `O=C(Nc1ccc(Cl)cc1)Nc1nnc(C(F)(F)F)s1` [Se10, 1-(4-chlorophenyl)-3-[5-(trifluoromethyl)-1,3,4-thiadiazol-2-yl]urea] it is “X (Effective killing was defined as >50% dead bacteria)”; for `N#C/C(=N\Nc1ccc(OC(F)(F)F)cc1)C(=O)c1cccs1` [Se12, (2E]-3-keto-3-(2-thienyl]-2-[[4-(trifluoromethoxy)phenyl]hydrazono]propionitrile] it is “X (Effective killing was defined as >50% dead bacteria)”.
Consider `CN(C)c1ccc(C(=C2C=CC(=[N+](C)C)C=C2)c2ccc(N(C)C)cc2)cc1` [Se13, [4-[bis(4-dimethylaminophenyl]methylene]-1-cyclohexa-2,5-dienylidene]-dimethyl-ammonium], for which the Killing entry in assay [8] is listed as “X (Effective killing was defined as >50% dead bacteria)”.
Same read-out and setting: the same measure for `CCc1c(C)[nH]c(CC(=O)O)c1C` [Se14, 2-(4-ethyl-3,5-dimethyl-1H-pyrrol-2-yl]acetic acid]: “X (Effective killing was defined as >50% dead bacteria)”; for `O=C(Nc1cccc(F)c1)c1ccccc1NS(=O)(=O)c1ccc(Br)cc1` [Se15, 2-[(4-bromophenyl)sulfonylamino]-N-(3-fluorophenyl)benzamide]: “X (Effective killing was defined as >50% dead bacteria)”.

These data come from patent publication US10704076B2, “Multi-tiered high through-put screen for compounds effective against bacterial biofilm and compounds effective for inhibiting and eradicating bacterial biofilm” (University of Cincinnati, priority 2013, dated 2020).
